| Compound | σ [mN/m] at 25° C. (surface tension) [mN/m] |
| --- | --- |
| CCCCCCC(CO)CCCC (centres unmarked) [Butyl Octanol] | 26.9 |
| CCCCCCCCCCC(CO)CCCCCCCC (centres unmarked) [Octyldodecanol] | 28.9 |

From patent publication US20050142080A1, “Cosmetic or dermatological light protection formulation with a benzoxazole derivative” (Beiersdorf AG, priority 2001, published 2005)
